The subject of assay [1] is preclinical models of neuropathic pain. Conditions: Chaplan 1999; cited from earlier work.
The test system of the next assay is CFA-injected rats. The assay can be described thus: Tactile allodynia (von Frey) in complete Freund's adjuvant (CFA) paw model of inflammatory pain. The class given is in vivo, rat. Conditions: i.p., ZD7288 10 mg/kg, ibuprofen 30 mg/kg, morphine 3 mg/kg, gabapentin 100 mg/kg.
The subject of assay [2] is rat mild thermal injury model. Kind of assay: Spontaneous pain behaviors in rat mild thermal injury (first-degree burn) model. The class given is in vivo. The note with it: 30 and 60 min after i.p. administration.
For the next assay, the system named is Ih. Conditions: applied intracellularly at 5 or 10 mM (Perkins et al. 1995); cited from earlier work.
Assay [3] concerns native Ih in normal rat L4 dorsal root ganglion neurons. Kind of assay: Whole cell patch clamp of native Ih in dissociated normal rat L4 DRG neurons, lidocaine block. The class given is cell-based. The method, then: Lidocaine was tested for its effect on Ih expressed in dissociated L4 dorsal root ganglion neurons from uninjured rats to determine whether this well known Na channel blocker could have other mechanisms of action.
DRG were extirpated, dissociated and cultured 3-4 days on poly-D-lysine coated coverslips as described in Example 10. Ih was measured using the whole cell configuration of the patch clamp technique according to the methods described in Example 10 with the exception that the pipette solution was the solution used in Example 3. Neurons were challenged with a family of hyperpolarizing voltage pulses (−60 mV to −150 mV in increments of 10 mV) from a holding potential of −50 mV. Ih was determined at the end of 600 msec duration test pulses. Lidocaine was bath-applied at neutral pH and the percent inhibition of control Ih was determined after lidocaine achieved steady state block. Plotted is the steady state current observed at −134 mV as a percent of control after incubation of lidocaine at the indicated concentrations. […] Lidocaine block was reversible. Data were obtained from 3 cells having control Ih densities of −1.5, −2.0 and −2.2 pA/pF.
A general note: In patch-clamp work, channel activity is measured electrically.

In assay [4] the test system is Ih in rabbit sinoatrial node. The note with it: rabbit sinoatrial node (Rocchetti et al. 1999); read-out: ED50 of Ih block previously reported; cited from earlier work.

As for `CCCCN1CCCCC1C(=O)Nc1c(C)cccc1C` (stereo not shown) [bupivacaine], the anti-hyperalgesic activity result in assay [1] is given as “does not possess any anti-hyperalgesic activity”.
As to `CN1CC[C@]23c4c5ccc(O)c4O[C@H]2[C@@H](O)C=C[C@H]3[C@H]1C5` [morphine], the “suppression of CFA-induced tactile allodynia” value in the assay with CFA-injected rats is reported as “suppressed”. In addition, the “suppression of spontaneous pain behaviors” value in assay [2] is recorded as “near complete suppression”.
`CC(C)Cc1ccc(C(C)C(=O)O)cc1` (stereo not shown) [ibuprofen]: the “suppression of CFA-induced tactile allodynia” value in the assay on CFA-injected rats is recorded as “suppressed”; in the assay on CFA-injected rats (listed as Ibuprofen) it was “some efficacy”.
For `NCC1(CC(=O)O)CCCCC1` [gabapentin], the “suppression of CFA-induced tactile allodynia” value in the assay on CFA-injected rats is listed as “not”.
As to `CC[N+](CC)(CC)CC(=O)Nc1c(C)cccc1C` [QX-314], in the assay on Ih, the “block of Ih” value is recorded as “blocks Ih”.
As to `CCN(CC)CC(=O)Nc1c(C)cccc1C` [lidocaine], the “reversibility of Ih block” value in assay [3] is “reversible”. The EC50 in assay [3] (bath-applied at neutral pH, current at −134 mV, 3 cells, read-out: ED50 of concentration-dependent block of Ih) is 23 µM; in assay [4] it was 38.2 µM.

These data come from patent US20030022812A1, “Treating pain by targeting hyperpolarization-activated, cyclic nucleotide-gated channels” (priority 2001, published 2003).
